Test results taken from US12421212B2, “Substituted benzenecarboxamides as IL-17A modulators” (DiCE Alpha, Inc., priority 2019, dated 2025).

Biological target: T1, IL-17A/A (Homo sapiens, UniProt Q16552)
T1 construct: purchased Genscript Z03228
T1 sequence (Q16552 24-155): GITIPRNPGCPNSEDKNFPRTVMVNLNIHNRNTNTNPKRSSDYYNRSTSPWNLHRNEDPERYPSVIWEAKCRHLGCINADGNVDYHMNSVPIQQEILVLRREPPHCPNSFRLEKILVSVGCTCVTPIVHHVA
Test: IL-17A/A HEK-Blue Cell Assay
Format: cell-based
Conditions: HEK-Blue IL-17A reporter cell line, SEAP readout at A630, 20 hours incubation with IL-17A/A, top concentration 10 uM, 1 uM or 0.3 uM; for IC50: read-out: IL-17A/A inhibition (pIC50) (converted)

IC50 [µM]	Compound	IL-17A/A inhibition (pIC50)
0.1 to 10	CCn1nccc1C(=O)N[C@H](C(=O)Nc1ccc([C@H](C)[C@@H](NC(=O)c2cscn2)C(=O)N2CCN(C)CC2)cc1F)C1CCCCC1 [Compound 682]	–
0.1 to 10	CCn1nccc1C(=O)N[C@H](C(=O)Nc1ccc([C@H](C)[C@@H](NC(=O)c2coc(C)n2)C(=O)N2CCN(C)CC2)cc1F)C1CCCCC1 [Compound 683]	–
0.1 to 10	CCC(=O)N[C@@H](C(=O)N1CCN(C)CC1)[C@@H](C)c1ccc(NC(=O)[C@@H](NC(=O)C(F)(F)c2cccc(C)c2)C2CCCCC2)c(F)c1 [Compound 684]	–
0.1 to 10	CCn1nccc1C(=O)N[C@H](C(=O)Nc1ccc([C@H](C)[C@@H](NC(=O)c2ccsn2)C(=O)N2CCN(C)CC2)cc1F)C1CCCCC1 [Compound 685]	–
0.1 to 10	CCC(=O)N[C@H](Cc1ccc(NC(=O)[C@@H](NC(=O)c2ccnn2CC)C2CCCCC2)c(F)c1)C(=O)N1CCN(C)C[C@@H]1C [Compound 686]	–
0.1 to 10	CCn1nccc1C(=O)N[C@H](C(=O)Nc1ccc([C@H](C)[C@@H](NC(=O)c2cc(C)on2)C(=O)N2CCN(C)CC2)cc1F)C1CCCCC1 [Compound 687]	–
0.1 to 10	CCC(=O)N[C@H](Cc1ccc(NC(=O)[C@@H](NC(=O)c2cnn3c2SCC3)C2CCCCC2)c(F)c1)C(=O)N1CCN(C)CC1 [Compound 688]	–
0.1 to 10	CCC(=O)N[C@H](Cc1ccc(NC(=O)[C@@H](NC(=O)c2ccnn2CC)C2CCC(F)(F)CC2)c(F)c1)C(=O)N1CCN(C)CC1 [Compound 689]	–
0.1 to 10	CCC(=O)N[C@H](Cc1ccc(NC(=O)[C@@H](NC(=O)c2ccnn2CC)C2CCCCC2)c(F)c1)C(=O)N1CCNC2(CC2)C1 [Compound 690]	–
0.1 to 10	CCC(=O)N[C@H](Cc1ccc(NC(=O)[C@@H](NC(=O)c2ccnn2CC)C2CCCCC2)cc1Cl)C(=O)N1CCN(C)CC1 [Compound 691]	–
0.1 to 10	CCC(=O)N[C@H](Cc1ccc(NC(=O)[C@@H](NC(=O)c2conc2CC)C2CCC(F)(F)CC2)c(F)c1)C(=O)N1CCN(C)CC1 [Compound 692]	–
0.1 to 10	CCC(=O)NC(Cc1ccc(NC(=O)[C@@H](NC(=O)c2ccnn2CC)C2CCCCC2)c(F)c1)C(=O)N1CCN2CCOCC2C1 (stereo partly drawn) [Compound 693]	–
0.1 to 10	CCC(=O)N[C@H](Cc1ccc(NC(=O)[C@@H](NC(=O)c2ccnn2CC)C2CCCCC2)c(F)c1)C(=O)Nc1cccnc1 [Compound 694]	–
0.1 to 10	CCn1nccc1C(=O)N[C@H](C(=O)Nc1ccc([C@H](C)[C@@H](NC(=O)c2csc(N)n2)C(=O)N2CCN(C)CC2)cc1F)C1CCCCC1 [Compound 695]	–
–	CCC(=O)N[C@H](Cc1ccc(NC(=O)[C@@H](NC(=O)c2ccnn2CC)C2CCCCC2)c(F)c1)C(=O)N1C[C@@H]2C[C@H]1CN2C [Compound 696]	X2a (compounds were evaluated up to 1 uM and did not inhibit activity by >80%, however they showed some activity at 1 uM (less than 80% and more than 20%))
–	CCC(=O)N[C@H](Cc1ccc(NC(=O)[C@@H](NC(=O)c2ccnn2CC)C2CCCCC2)c(F)c1)C(=O)N1CCN2CCCC[C@@H]2C1 [Compound 697]	X2a (compounds were evaluated up to 1 uM and did not inhibit activity by >80%, however they showed some activity at 1 uM (less than 80% and more than 20%))
–	CCC(=O)N[C@H](Cc1ccc(NC(=O)[C@@H](NC(=O)c2ccnn2CC)c2cccc3ccccc23)c(F)c1)C(=O)N1CCN(C)CC1 [Compound 698]	X2b (compounds were evaluated up to 1 uM and inhibited activity at 1 uM by less than 20%)
–	CCC(=O)N[C@H](Cc1ccc(NC(=O)[C@@H](NC(=O)c2cnc(C(=O)NC)s2)C2CCCCC2)c(F)c1)C(=O)N1CCN(C)CC1 [Compound 699]	X2b (compounds were evaluated up to 1 uM and inhibited activity at 1 uM by less than 20%)
–	CCn1nccc1C(=O)N[C@H](C(=O)Nc1ccc(C[C@@H](Nc2nc(N)nc(C(F)(F)F)n2)C(=O)N2CCN(C)CC2)cc1F)C1CCCCC1 [Compound 700]	X2a (compounds were evaluated up to 1 uM and did not inhibit activity by >80%, however they showed some activity at 1 uM (less than 80% and more than 20%))
–	CCn1nccc1C(=O)N[C@H](C(=O)Nc1ccc(C[C@@H](Nc2ncc(C#N)c(OC)n2)C(=O)N2CCN(C)CC2)cc1F)C1CCCCC1 [Compound 701]	X2a (compounds were evaluated up to 1 uM and did not inhibit activity by >80%, however they showed some activity at 1 uM (less than 80% and more than 20%))

IC50 [µM]	Compound	IL-17A/A inhibition (pIC50)
–	CCn1nccc1C(=O)N[C@H](C(=O)Nc1ccc(C[C@@H](NC(=O)c2cn(C)cn2)C(=O)N2CCN(C)CC2)cc1F)C1CCCCC1 [Compound 702]	X2b (compounds were evaluated up to 1 uM and inhibited activity at 1 uM by less than 20%)
–	CCC(=O)N[C@H](Cc1ccc(NC(=O)[C@@H](NC(=O)c2cnn3c2CCC3)C2CCCCC2)c(F)c1)C(=O)N1CCN(C)CC1 [Compound 703]	X2a (compounds were evaluated up to 1 uM and did not inhibit activity by >80%, however they showed some activity at 1 uM (less than 80% and more than 20%))
–	CCC(=O)N[C@H](Cc1ccc(NC(=O)[C@@H](NC(=O)c2ccnn2CCO)C2CCCCC2)c(F)c1)C(=O)N1CCN(C)CC1 [Compound 704]	X2a (compounds were evaluated up to 1 uM and did not inhibit activity by >80%, however they showed some activity at 1 uM (less than 80% and more than 20%))
–	CCC(=O)N[C@H](Cc1ccc(NC(=O)[C@@H](NC(=O)c2noc3c2CNCC3)C2CCCCC2)c(F)c1)C(=O)N1CCN(C)CC1 [Compound 705]	X2b (compounds were evaluated up to 1 uM and inhibited activity at 1 uM by less than 20%)
–	CCC(=O)N[C@H](Cc1ccc(NC(=O)[C@@H](NC(=O)c2nn(C)c3c2CNCC3)C2CCCCC2)c(F)c1)C(=O)N1CCN(C)CC1 [Compound 706]	X2b (compounds were evaluated up to 1 uM and inhibited activity at 1 uM by less than 20%)
–	CCC(=O)N[C@H](Cc1ccc(NC(=O)[C@@H](NC(=O)c2coc3c2C(=O)NCC3)C2CCCCC2)c(F)c1)C(=O)N1CCN(C)CC1 [Compound 708]	X2b (compounds were evaluated up to 1 uM and inhibited activity at 1 uM by less than 20%)
–	CCC(=O)N[C@H](Cc1ccc(NC(=O)[C@@H](NC(=O)C(C)(C)c2ccccc2)C2CCCCC2)c(F)c1)C(=O)N1CCN(C)CC1 [Compound 709]	X2b (compounds were evaluated up to 1 uM and inhibited activity at 1 uM by less than 20%)
–	CCC(=O)N[C@H](Cc1ccc(NC(=O)[C@@H](NC(=O)C2(c3ccccc3)CC2)C2CCCCC2)c(F)c1)C(=O)N1CCN(C)CC1 [Compound 710]	X2b (compounds were evaluated up to 1 uM and inhibited activity at 1 uM by less than 20%)
–	CCC(=O)N[C@H](Cc1ccc(NC(=O)[C@@H](NC(=O)Cc2ccc(OC)nc2)C2CCCCC2)c(F)c1)C(=O)N1CCN(C)CC1 [Compound 711]	X2a (compounds were evaluated up to 1 uM and did not inhibit activity by >80%, however they showed some activity at 1 uM (less than 80% and more than 20%))
–	CCC(=O)N[C@H](Cc1ccc(NC(=O)[C@@H](NC(=O)C(F)(F)c2ccncc2)C2CCCCC2)c(F)c1)C(=O)N1CCN(C)CC1 [Compound 712]	X2a (compounds were evaluated up to 1 uM and did not inhibit activity by >80%, however they showed some activity at 1 uM (less than 80% and more than 20%))
–	CCC(=O)N[C@H](Cc1ccc(NC(=O)[C@@H](NC(=O)C(F)(F)c2ccc(=O)n(C)c2)C2CCCCC2)c(F)c1)C(=O)N1CCN(C)CC1 [Compound 713]	X2b (compounds were evaluated up to 1 uM and inhibited activity at 1 uM by less than 20%)
–	CCC(=O)N[C@H](Cc1ccc(NC(=O)[C@@H](NC(=O)C(F)(F)C2(O)CCCC2)C2CCCCC2)c(F)c1)C(=O)N1CCN(C)CC1 [Compound 715]	X2b (compounds were evaluated up to 1 uM and inhibited activity at 1 uM by less than 20%)
–	CCC(=O)N[C@H](Cc1ccc(NC(=O)[C@@H](NC(=O)c2cnc(CNS(C)(=O)=O)n2C)C2CCCCC2)c(F)c1)C(=O)N1CCN(C)CC1 [Compound 716]	X2b (compounds were evaluated up to 1 uM and inhibited activity at 1 uM by less than 20%)
–	CCC(=O)N[C@H](Cc1ccc(NC(=O)[C@@H](NC(=O)c2cnc(CNC(C)=O)n2C)C2CCCCC2)c(F)c1)C(=O)N1CCN(C)CC1 [Compound 717]	X2b (compounds were evaluated up to 1 uM and inhibited activity at 1 uM by less than 20%)
–	CCC(=O)N[C@H](Cc1ccc(NC(=O)[C@@H](NC(=O)c2ccc(S(=O)(=O)NC)s2)C2CCCCC2)c(F)c1)C(=O)N1CCN(C)CC1 [Compound 718]	X2a (compounds were evaluated up to 1 uM and did not inhibit activity by >80%, however they showed some activity at 1 uM (less than 80% and more than 20%))
–	CCC(=O)N[C@H](Cc1ccc(NC(=O)[C@H](Cc2ccc(Cl)cc2)NC(=O)c2ccnn2CC)c(F)c1)C(=O)N1CCN(C)CC1 [Compound 722]	X2b (compounds were evaluated up to 1 uM and inhibited activity at 1 uM by less than 20%)
–	CCC(=O)N[C@H](Cc1ccc(NC(=O)[C@H](Cc2ccc(C(F)(F)F)cc2)NC(=O)c2ccnn2CC)c(F)c1)C(=O)N1CCN(C)CC1 [Compound 723]	X2b (compounds were evaluated up to 1 uM and inhibited activity at 1 uM by less than 20%)
–	CCC(=O)N[C@H](Cc1ccc(NC(=O)[C@H](Cc2ccc3ccccc3c2)NC(=O)c2ccnn2CC)c(F)c1)C(=O)N1CCN(C)CC1 [Compound 724]	X2b (compounds were evaluated up to 1 uM and inhibited activity at 1 uM by less than 20%)
–	CCC(=O)N[C@H](Cc1ccc(NC(=O)[C@H](Cc2ccccc2F)NC(=O)c2ccnn2CC)c(F)c1)C(=O)N1CCN(C)CC1 [Compound 725]	X2b (compounds were evaluated up to 1 uM and inhibited activity at 1 uM by less than 20%)
